Data taken from the NIST ThermoML archive (doi:10.1021/acs.jced.7b01004).
± gives the expanded uncertainty stated by the source.

How the values were obtained:
[1] = xn = mol fraction of the nth substance listed; details: 99.6 kPa, Liquid, x1 = 0.5; for viscosity: Concentric cylinders viscometry; for mass density: Vibrating tube method
[2] = refractive index (Na D-line) (dimensionless); xn = mol fraction of the nth substance listed; details: 293.15 K; 99.6 kPa; Liquid; Standard Abbe refractometry; x1 = 0.5

CCCCn1cc[n+](C)c1.CS(=O)(=O)[O-] [1-butyl-3-methylimidazolium methanesulfonate] + NC(N)=O
[1]
Details | mass density [kg/m3] | viscosity [mPa·s]
293.15 K | 1202.2 ± 1.2 | 1892.9 ± 93
303.15 K | 1195.6 ± 1.2 | 686.69 ± 25
313.15 K | 1189.2 ± 1.2 | 295.72 ± 7.4
323.15 K | 1182.7 ± 1.2 | 145.85 ± 2.3
333.15 K | 1176.3 ± 1.2 | 80.41 ± 0.74

Details | refractive index
[2] | 1.493 ± 0.001
